# Assay: Human HepG2 cell viability assay in 384 well format
# Assay type: toxicity, cell-based
# Design: dose 125 nL, time 70.5 hour; cytotoxicity at 70.5 h: concentration not given beside the values
# Settings: HepG2 cells, read-out: Inhibition
row,SMILES,cytotoxicity at 70.5 h
1,CC(NC(=O)N(C)Cc1ccncc1)c1nncn1C (centres undefined),-4.45%
2,COc1cc(C)nc(N2CCN(Cc3nccn3C)CC2)n1,0.0501%
3,Cc1cc(NC(=O)CN2CCc3nn(C)c(=O)cc3C2)on1,1.43%
4,CSCCCNC(=O)Nc1cccc(-c2nccn2C)c1,3.57%
5,Cn1ccnc1-c1cccc(NC(=O)NCCCO)c1,1.83%
6,N#Cc1cccc(SCCS(N)(=O)=O)c1,-6.9%
7,Cc1nc(C2CCCN(C(=O)c3scnc3C)C2)no1 (centres undefined),-7.6%
8,Cc1nc(C2CCCN(C(=O)c3sccc3C3CC3)C2)no1 (centres undefined),-8.62%
9,O=C(c1cc(Cl)c2c(c1)OCO2)N1CCN(c2ccccn2)CC1,-2.19%
10,CC(NC(=O)C1=NN(C)C(=O)CC1)c1ccc(F)cc1F (centres undefined),20%
11,CC(OCC(F)(F)F)C(=O)N1CCN(S(C)(=O)=O)CC1 (centres undefined),-1.69%
12,O=C(NCCCn1cccn1)C1(c2ccc(F)cc2)CC1,-2.75%
13,Cc1cccc(C2(C(=O)NCCCn3cccn3)CC2)c1,-5.49%
14,Cc1ccc(C(=O)NC(CN2CCCC2=O)c2ccccc2)c(=O)[nH]1 (centres undefined),17.4%
15,Cc1nc(C(C)(C)NC(=O)Nc2cccc(C#N)c2)no1,-2.69%
16,OCCOc1nc(-c2ccccc2Cl)no1,-1.34%
17,O=C1OCCN1CCOc1nc(-c2ccccc2Cl)no1,-4.69%
18,CN(CC(F)(F)F)C(=O)C1CSCN1C(=O)OC(C)(C)C (centres undefined),4.04%
19,CCCc1cc(NC2CCc3ncnn3C2)n2ncnc2n1 (centres undefined),0.783%
20,Cc1nc2n(n1)CC(Nc1cc(C(F)(F)F)nc3ncnn13)CC2 (centres undefined),-0.866%
21,CCc1ncc2c(n1)CN(Cc1nc(C)c(C)o1)CC2,1.3%
22,Cc1c(Br)cccc1C(=O)NC(C)CN1CCCC1=O (centres undefined),1.84%
23,CCn1nc2c(cc1=O)CN(Cc1nc3ccccc3c(=O)[nH]1)CC2,0.253%
24,CCc1nc2n(n1)CC(Nc1cc(C)nc3ncnn13)CC2 (centres undefined),-5.27%
25,O=C(NS(=O)(=O)c1ccccc1Cl)c1cccc2c1OCCO2,-3.53%
26,O=C(NS(=O)(=O)c1cc(Cl)sc1Cl)c1cccc2c1OCCO2,1.61%
27,CC(C)NC(=O)N1CCC(n2ccc(C(F)(F)F)n2)CC1,1.15%

row,SMILES,cytotoxicity at 70.5 h
1,CN(CCC(F)(F)F)C(=O)C1CCCN1C(=O)OC(C)(C)C (centres undefined),0.473%
2,CCc1n[nH]c(C2CN(CC(=O)NCCc3ccsc3)CCO2)n1 (centres undefined),-3.93%
3,c1csc(-c2nc(CN3CCCC3Cn3cncn3)co2)c1 (centres undefined),-10.5%
4,Cc1nc(CN2CCc3cncnc3C2)oc1C,-5.69%
5,Cc1ccn(-c2ccccc2NCc2ccccn2)n1,-8%
6,Cc1ccc(F)c(C(=O)N2CCN(S(C)(=O)=O)[C@@H](C)C2)c1,-3.67%
7,Cc1cc(F)cc(S(=O)(=O)NCCCN2CCC(O)CC2)c1,11.3%
8,Cc1cc(F)c(S(=O)(=O)NCCCN2CCC(O)CC2)cc1F,7.32%
9,O=C(C(CNCc1ccncc1)c1ccccc1)N1CCOCC1 (centres undefined),-5.58%
10,NC(=O)C1CCN(Cn2nc(-c3ccc(F)cc3)oc2=O)CC1,5.9%
11,Cc1cc(CN(C)C(=O)C2CCCN(C(=O)c3ccc(Cl)cc3)C2)no1 (centres undefined),-10.8%
12,Cc1ccc(-n2nnc(CC(=O)N3CCSCC3)c2C)cc1,-12.8%
13,CCOc1cc(CN(C)CCOC)ccc1OC(F)F,12.4%
14,Cc1oc(-c2ccsc2)nc1CC(=O)NCCS(C)(=O)=O,-12.9%
15,C[C@@H]1C[C@@H]2CCN(Cc3ccccn3)C[C@H]2O1,-5.42%
16,Cc1cccc(CN2CC[C@H]3C[C@H](C)O[C@@H]3C2)n1,-4.58%
17,O=C(CO)N1C[C@H]2CN(Cc3cccc(F)c3)C(=O)[C@H]2C1,-5.34%
18,Cc1nccc([C@@H]2C[C@@H]3CCN(Cc4c(C)noc4C)C[C@H]3O2)n1,-10.7%
19,O=C(C1CCOC1)N1CCC2(CCN(Cc3nccs3)C2)CC1 (centres undefined),-10.1%
20,Cc1cnc(C(=O)N2C[C@H]3CN(Cc4cccc(F)c4)C(=O)[C@H]3C2)cn1,10.5%
21,CN1C(=O)CC(c2cnn(C)c2)C12CCN(C(=O)c1cscn1)CC2 (centres undefined),-2.36%
22,Cc1oncc1C(=O)N1CCC2(CC1)C(c1cnn(C)c1)CC(=O)N2C (centres undefined),-9.68%
23,Cc1cnc(C(=O)N2C[C@@H](NS(C)(=O)=O)[C@@H]3OCCC[C@@H]32)cn1,-13.4%
24,Fc1cnc(N2CCCC3(CCN(Cc4nccs4)C3)C2)nc1 (centres undefined),15%
25,c1ccc(NCc2cnc3n2CCN(C2CCOC2)CC3)nc1 (centres undefined),15.7%
26,CS(=O)(=O)N[C@@H]1CN(C(=O)c2ccccn2)C[C@@H]2CCCO[C@@H]21,-9.33%
27,c1nc2n(c1CN1CCCC1)CCN(C1CCOCC1)CC2,-7.69%

# — ChEMBL document CHEMBL3507680, “University of Dundee, Gates Library screen for HepG2 cell viability”
